Test results: patent publication US10428051B2 (priority 2015, dated 2019)

Target: human σ1 receptor (Homo sapiens, UniProt Q99720)
Assay: biochemical
Format: binding
Parameters: μ and σ1 dual (binding to the σ1 receptor and the μ-opioid receptor expressed as Ki): key to the marks not given beside the values
Conditions: not given

human σ1 receptor, sequence (Q99720 whole entry): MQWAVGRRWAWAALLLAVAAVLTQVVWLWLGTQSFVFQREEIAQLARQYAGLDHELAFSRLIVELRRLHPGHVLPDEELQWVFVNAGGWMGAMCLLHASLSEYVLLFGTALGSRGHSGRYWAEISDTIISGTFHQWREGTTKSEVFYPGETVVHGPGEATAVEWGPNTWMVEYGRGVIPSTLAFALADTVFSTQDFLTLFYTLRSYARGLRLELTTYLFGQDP

Structure (SMILES)	Ki	μ and σ1 dual (binding to the σ1 receptor and the μ-opioid receptor expressed as Ki)
CCC(=O)N(CC1(N2CCN(Cc3ccccc3)CC2)CCOCC1)C(C)c1ccccc1 (centres unmarked) [Example 13, N-((4-(4-benzylpiperazin-1-yl)tetrahydro-2H-pyran-4-yl)methyl)-N-(1-phenylethyl)propionamide]	< 100 nM	–
CCC(=O)N(CC1(N2CCN(Cc3ccccc3)CC2)CC1)c1nccs1 [Example 92, N-((1-(4-benzylpiperazin-1-yl)cyclopropyl)methyl)-N-(thiazol-2-yl)propionamide]	< 500 nM	–
CCC(=O)N(CC1(N2CCN(CC(=O)N3CCCCC3)CC2)CC1)c1ccccc1 [Example 132, N-((1-(4-(2-oxo-2-(piperidin-1-yl)ethyl)piperazin-1-yl)cyclopropyl)methyl)-N-phenylpropionamide]	–	++
CCC(=O)N(CC1(N2CCN(CCC(C)C)CC2)CCOC(C)(C)C1)c1ncccc1F (centres unmarked) [Example 168, N-(3-fluoropyridin-2-yl)-N-((4-(4-isopentylpiperazin-1-yl)-2,2-dimethyltetrahydro-2H-pyran-4-yl)methyl)propionamide]	–	++
CCC(=O)N(CC1(N2CCN(CCOC(C)C)CC2)CCOC(C)(C)C1)c1ccccn1 (centres unmarked) [Example 163, N-((4-(4-(2-isopropoxyethyl)piperazin-1-yl)-2,2-dimethyltetrahydro-2H-pyran-4-yl)methyl)-N-(pyridin-2-yl)propionamide]	> 500 nM	–
CCC(=O)N(CC1(N2CCN(CC(C)C)CC2)CCOCC1)c1ccccn1 [Example 151, N-((4-(4-isobutylpiperazin-1-yl)tetrahydro-2H-pyran-4-yl)methyl)-N-(pyridin-2-yl)propionamide]	> 500 nM	–
CCC(=O)N(CC1(N2CCN(Cc3ccccc3)CC2)CC1)c1ccc(F)cn1 [Example 33, N-((1-(4-benzylpiperazin-1-yl)cyclopropyl)methyl)-N-(5-fluoropyridin-2-yl)propionamide]	< 500 nM	–
CCC(=O)N(CC1(N2CCN(CC(C)C)CC2)CCOC2(CCCC2)C1)c1cccc(C(F)(F)F)n1 (centres unmarked) [Example 175, N-((9-(4-isobutylpiperazin-1-yl)-6-oxaspiro[4.5]decan-9-yl)methyl)-N-(6-(trifluoromethyl)pyridin-2-yl)propionamide]	< 500 nM	–
CCOCCN1CCC(C2(CN(C(=O)CC)c3cccc(C(F)(F)F)n3)CCOCC2)CC1 [Example 177, N-((4-(1-(2-ethoxyethyl)piperidin-4-yl)tetrahydro-2H-pyran-4-yl)methyl)-N-(6-(trifluoromethyl)pyridin-2-yl)propionamide]	< 500 nM	–
CCC(=O)N(CC1(N2CCN(CCC(C)C)CC2)CCOCC1)c1cccc(C#N)n1 [Example 86, N-(6-cyanopyridin-2-yl)-N-((4-(4-isopentylpiperazin-1-yl)tetrahydro-2H-pyran-4-yl)methyl)propionamide]	< 500 nM	–
CCC(=O)N(CC1(N2CCN(Cc3ccccc3)CC2)CCOCC1)c1ccc(F)cn1 [Example 6, N-((4-(4-benzylpiperazin-1-yl)tetrahydro-2H-pyran-4-yl)methyl)-N-(5-fluoropyridin-2-yl)propionamide]	< 500 nM	–
CCC(=O)N(CC1(N2CCN(Cc3ccccc3)CC2)CCOCC1)c1ccc(C(F)(F)F)cn1 [Example 7, N-((4-(4-benzylpiperazin-1-yl)tetrahydro-2H-pyran-4-yl)methyl)-N-(5-(trifluoromethyl)pyridin-2-yl)propionamide]	–	++
CCC(=O)N(Cc1ccccc1)CC1(N2CCN(Cc3ccccc3)CC2)CCOCC1 [Example 14, N-benzyl-N-((4-(4-benzylpiperazin-1-yl)tetrahydro-2H-pyran-4-yl)methyl)propionamide]	–	++
CCC(=O)N(CC1(N2CCN(Cc3ccccc3)CC2)CC1)c1ccncc1 [Example 31, N-((1-(4-benzylpiperazin-1-yl)cyclopropyl)methyl)-N-(pyridin-4-yl)propionamide]	–	++
CCC(=O)N(CC1(N2CCN(C(C)CC)CC2)CCOC(C)(C)C1)c1cccc(C(F)(F)F)n1 (centres unmarked) [Example 162, N-((4-(4-sec-butylpiperazin-1-yl)-2,2-dimethyltetrahydro-2H-pyran-4-yl)methyl)-N-(6-(trifluoromethyl)pyridin-2-yl)propionamide]	> 500 nM	–
CCC(=O)N(CC1(N2CCN(Cc3cccnc3)CC2)CCOCC1)c1ccccc1 [Example 101, N-phenyl-N-((4-(4-(pyridin-3-ylmethyl)piperazin-1-yl)tetrahydro-2H-pyran-4-yl)methyl)propionamide]	< 500 nM	–
CCOCCN1CCN(C2(CN(C(=O)CC)c3ccccn3)CCOC(C)(C)C2)CC1 (centres unmarked) [Example 165, N-((4-(4-(2-ethoxyethyl)piperazin-1-yl)-2,2-dimethyltetrahydro-2H-pyran-4-yl)methyl)-N-(pyridin-2-yl)propionamide]	> 500 nM	–

Structure (SMILES)	Ki	μ and σ1 dual (binding to the σ1 receptor and the μ-opioid receptor expressed as Ki)
CCC(=O)N(CC1(N2CCN(Cc3ccccc3)CC2)CCOCC1)c1cccc(C#N)n1 [Example 84, N-((4-(4-benzylpiperazin-1-yl)tetrahydro-2H-pyran-4-yl)methyl)-N-(6-cyanopyridin-2-yl)propionamide]	< 500 nM	–
CCC(=O)N(CC1(N2CCN(CCc3ccccc3)CC2)CCCCC1)c1ccccn1 [Example 21, N-((1-(4-phenethylpiperazin-1-yl)cyclohexyl)methyl)-N-(pyridin-2-yl)propionamide]	< 500 nM	–
CCOCCN1CCN(C2(CN(C(=O)CC)c3cccc(C(F)(F)F)n3)CCOC3(CCCC3)C2)CC1 (centres unmarked) [Example 176, N-((9-(4-(2-ethoxyethyl)piperazin-1-yl)-6-oxaspiro[4.5]decan-9-yl)methyl)-N-(6-(trifluoromethyl)pyridin-2-yl)propionamide]	< 500 nM	–
CCC(=O)N(CC1(N2CCN(CCOC(C)C)CC2)CCOC(C)(C)C1)c1cccc(C(F)(F)F)n1 (centres unmarked) [Example 161, N-((4-(4-(2-isopropoxyethyl)piperazin-1-yl)-2,2-dimethyltetrahydro-2H-pyran-4-yl)methyl)-N-(6-(trifluoromethyl)pyridin-2-yl)propionamide]	< 500 nM	–
CCC(=O)N(CC1(N2CCN(Cc3ccccc3)CC2)CCOC(C)(C)C1)c1ncccc1F (centres unmarked) [Example 64, N-((4-(4-benzylpiperazin-1-yl)-2,2-dimethyltetrahydro-2H-pyran-4-yl)methyl)-N-(3-fluoropyridin-2-yl)propionamide]	< 500 nM	–
CCC(=O)N(CC1(N2CCN(Cc3cccnc3)CC2)CC1)c1ccccc1 [Example 119, N-phenyl-N-((1-(4-(pyridin-3-ylmethyl)piperazin-1-yl)cyclopropyl)methyl)propionamide]	< 500 nM	–
CCC(=O)N(CC(C)C)CC1(N2CCN(Cc3ccccc3)CC2)CCOCC1 [Example 15, N-((4-(4-benzylpiperazin-1-yl)tetrahydro-2H-pyran-4-yl)methyl)-N-isobutylpropionamide]	–	++
CCC(=O)N(CC1(N2CCN(Cc3ccccc3)CC2)CC1)c1cccc(C#N)c1 [Example 96, N-((1-(4-benzylpiperazin-1-yl)cyclopropyl)methyl)-N-(3-cyanophenyl)propionamide]	< 500 nM	–
CCC(=O)N(CC1(N2CCN(Cc3ccccc3)CC2)CCOCC1)c1cncc(F)c1 [Example 10, N-((4-(4-benzylpiperazin-1-yl)tetrahydro-2H-pyran-4-yl)methyl)-N-(5-fluoropyridin-3-yl)propionamide]	< 500 nM	–
CCC(=O)N(CC1(N2CCN(CCOC3CC3)CC2)CCOCC1)c1cccc(C(F)(F)F)n1 [Example 183, N-((4-(4-(2-cyclopropoxyethyl)piperazin-1-yl)tetrahydro-2H-pyran-4-yl)methyl)-N-(6-(trifluoromethyl)pyridin-2-yl)propionamide]	< 500 nM	–
CCC(=O)N(CC1(N2CCN(CCOCC(C)(C)F)CC2)CCOCC1)c1cccc(C(F)(F)F)n1 [Example 189, N-((4-(4-(2-(2-fluoro-2-methylpropoxy)ethyl)piperazin-1-yl)tetrahydro-2H-pyran-4-yl)methyl)-N-(6-(trifluoromethyl)pyridin-2-yl)propionamide]	< 100 nM	–
CCC(=O)N(CC1(N2CCN(Cc3ccccc3)CC2)CC1)c1cnccc1C(F)(F)F [Example 78, N-((1-(4-benzylpiperazin-1-yl)cyclopropyl)methyl)-N-(4-(trifluoromethyl)pyridin-3-yl)propionamide]	< 500 nM	–
CCC(=O)N(CC1(N2CCN(Cc3ccccc3)CC2)CCOCC1)c1ccncc1 [Example 12, N-((4-(4-benzylpiperazin-1-yl)tetrahydro-2H-pyran-4-yl)methyl)-N-(pyridin-4-yl)propionamide]	> 500 nM	–
CCC(=O)N(CC1(N2CCN(Cc3ccc(C(=O)NC)cc3)CC2)CC1)c1ccccc1 [Example 131, N-methyl-4-((4-(1-((N-phenylpropionamido)methyl)cyclopropyl)piperazin-1-yl)methyl)benzamide]	–	++
CCC(=O)N(CC1(N2CCN(C(C)c3ccccc3)CC2)CCOCC1)c1ccccn1 (centres unmarked) [Example 134, N-((4-(4-(1-phenylethyl)piperazin-1-yl)tetrahydro-2H-pyran-4-yl)methyl)-N-(pyridin-2-yl)propionamide]	–	++
CCC(=O)N(CC1(N2CCN(CCOC(C)C)CC2)CCOCC1)c1ccccn1 [Example 152, N-((4-(4-(2-isopropoxyethyl)piperazin-1-yl)tetrahydro-2H-pyran-4-yl)methyl)-N-(pyridin-2-yl)propionamide]	> 500 nM	–
CCC(=O)N(CC1(N2CCN(C(C(=O)OC)c3ccccc3)CC2)CCOCC1)c1ccccn1 (centres unmarked) [Example 180, methyl 2-phenyl-2-(4-(4-((N-(pyridin-2-yl)propionamido)methyl)tetrahydro-2H-pyran-4-yl)piperazin-1-yl)acetate]	> 500 nM	–

Same assay, conditions: combined class for both Ki-σ1 (assay A1) and Ki-μ (assay A2); human receptors, radioligand binding; read-out: μ and σ1 dual (binding to the σ1 receptor and the μ-opioid receptor expressed as Ki)

Structure (SMILES)	Ki
CCOc1ccc(N(CC2(N3CCN(Cc4ccccc4)CC3)CCN(C)CC2)C(=O)CC)cc1 [Example 24, N-((4-(4-benzylpiperazin-1-yl)-1-methylpiperidin-4-yl)methyl)-N-(4-ethoxyphenyl)propionamide]	> 500 nM
